Experimental data reported in patent publication US9776962B2, “Aromatic compounds with GPR40 agonistic activity” (TAKEDA PHARMACEUTICAL COMPANY LIMITED, priority 2013, dated 2017).

molecular target: T1, human GPR40 (Homo sapiens, UniProt O14842); assay: Evaluation of human GPR40 agonist activity with increase in intracellular Ca2+ concentration as an index (FLIPR); format: cell-based; settings: test compound 1 μM; CHO(dhfr−) cells stably expressing human GPR40; 100% = 10 μM compound of Example 153, 0% = DMSO
T1 construct: expressed in transfected cells
Method in brief: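 CHO(dhfr−) cells stably expressing full-length human GPR40 were loaded with Ca2+ probe for 1 h at room temperature, then given test compound at 1 μM final. Fluorescence was followed on FLIPR, with activity scaled to a reference agonist at 10 μM (100%) and DMSO (0%).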

T1 sequence (O14842 whole entry): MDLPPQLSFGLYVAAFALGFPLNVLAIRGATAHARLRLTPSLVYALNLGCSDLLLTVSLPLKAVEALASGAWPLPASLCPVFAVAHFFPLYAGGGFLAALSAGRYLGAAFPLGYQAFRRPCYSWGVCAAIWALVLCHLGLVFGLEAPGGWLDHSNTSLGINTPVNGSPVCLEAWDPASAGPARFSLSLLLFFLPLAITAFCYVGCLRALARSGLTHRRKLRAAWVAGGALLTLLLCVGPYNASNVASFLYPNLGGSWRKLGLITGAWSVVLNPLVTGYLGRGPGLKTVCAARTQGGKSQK

For `COc1ccc(C(=O)N(c2ccccn2)C2CCN(CC(F)(F)F)CC2)c(N2CCC(COc3cc(C(CC(=O)O)C4CC4)ccn3)CC2)c1` (stereo not shown) [Example 191, 3-cyclopropyl-3-(2-((1-(5-methoxy-2-(pyridin-2-yl(1-(2,2,2-trifluoroethyl)piperidin-4-yl)carbamoyl)phenyl)piperidin-4-yl)methoxy)pyridin-4-yl)propanoic acid], which “Activity (human GPR40 agonist activity)” value is on record?
The value was 86%.

`COc1ccc(C(=O)N(CC2(F)CCC2)c2ccccn2)c(N2CCC(COc3cc(C(CC(=O)O)C4CC4)ccn3)CC2)c1` (stereo not shown) [Example 154, 3-cyclopropyl-3-(2-((1-(2-(((1-fluorocyclobutyl)methyl)(pyridin-2-yl)carbamoyl)-5-methoxyphenyl)piperidin-4-yl)methoxy)pyridin-4-yl)propanoic acid] was tested. Which activation at 1 µM did it give?
Its activation at 1 µM is 100%.

Which activation at 1 µM does the source give for `COc1ccc(C(=O)N(CC(C)(C)C)C2CC2)c(N2CCC(COc3cc(C(CC(=O)O)C4CC4)ccn3)CC2)c1` (stereo not shown) [Example 192, 3-cyclopropyl-3-(2-((1-(2-(cyclopropyl(2,2-dimethylpropyl)carbamoyl)-5-methoxyphenyl)piperidin-4-yl)methoxy)pyridin-4-yl)propanoic acid] here?
Its activation at 1 µM is 90%.

How did the activation at 1 µM turn out when `COc1ccc(C(=O)N(c2ccccn2)C(C)C(C)C)c(N2CCC(COc3cc(C(CC(=O)O)C4CC4)ccn3)CC2)c1` (stereo not shown) [Example 121, 3-cyclopropyl-3-(2-((1-(5-methoxy-2-((3-methylbutan-2-yl)(pyridin-2-yl)carbamoyl)phenyl)piperidin-4-yl)methoxy)pyridin-4-yl)propanoic acid] was run?
Its activation at 1 µM is 95%.

`COc1ccc(C(=O)N(CC(C)(C)C)c2ncccn2)c(N2CCC(COc3cc(C(CC(=O)O)C4CC4)ccn3)CC2)c1` (stereo not shown) [Example 156, 3-cyclopropyl-3-(2-((1-(2-((2,2-dimethylpropyl)(pyrimidin-2-yl)carbamoyl)-5-methoxyphenyl)piperidin-4-yl)methoxy)pyridin-4-yl)propanoic acid] was tested. Which activation at 1 µM did it give?
Its activation at 1 µM is 98%.

With `COc1ccc(C(=O)N(CC(C)(C)C)c2cnccn2)c(N2CCC(COc3cc(C(CC(=O)O)C4CC4)ccn3)CC2)c1` (stereo not shown) [Example 178, 3-cyclopropyl-3-(2-((1-(2-((2,2-dimethylpropyl)(pyrazin-2-yl)carbamoyl)-5-methoxyphenyl)piperidin-4-yl)methoxy)pyridin-4-yl)propanoic acid] as the compound, how does the activation at 1 µM read?
The activation at 1 µM was 103%.

How did the activation at 1 µM turn out when `COc1ccc(C(=O)N(C)CC(F)(F)C(F)(F)F)c(N2CCC(COc3cc(C(CC(=O)O)C4CC4)ccn3)CC2)c1` (stereo not shown) [Example 130, 3-cyclopropyl-3-(2-((1-(5-methoxy-2-(methyl(2,2,3,3,3-pentafluoropropyl)carbamoyl)phenyl)piperidin-4-yl)methoxy)pyridin-4-yl)propanoic acid] was run?
Its activation at 1 µM is 100%.

With `COc1ccc(C(=O)N2CCOCC2Cc2ccccc2)c(N2CCC(COc3cc(C(CC(=O)O)C4CC4)ccn3)CC2)c1` (stereo not shown) [Example 201, 3-(2-((1-(2-((3-benzylmorpholin-4-yl)carbonyl)-5-methoxyphenyl)piperidin-4-yl)methoxy)pyridin-4-yl)-3-cyclopropylpropanoic acid] as the compound, how does the activation at 1 µM read?
The activation at 1 µM was 92%.

With `COc1ccc(C(=O)N(CC2CC2)c2cc(C)cc(C)n2)c(N2CCC(COc3cc(C(CC(=O)O)C4CC4)ccn3)CC2)c1` (stereo not shown) [Example 244, 3-cyclopropyl-3-(2-((1-(2-((cyclopropylmethyl)(4,6-dimethylpyridin-2-yl)carbamoyl)-5-methoxyphenyl)piperidin-4-yl)methoxy)pyridin-4-yl)propanoic acid] as the compound, how does the activation at 1 µM read?
Its activation at 1 µM is 99%.

How did the activation at 1 µM turn out when `COc1ccc(C(=O)N(CC(C)(C)O)c2ccccn2)c(N2CCC(COc3cc(C(CC(=O)O)C4CC4)ccn3)CC2)c1` (stereo not shown) [Example 119, 3-cyclopropyl-3-(2-((1-(2-((2-hydroxy-2-methylpropyl)(pyridin-2-yl)carbamoyl)-5-methoxyphenyl)piperidin-4-yl)methoxy)pyridin-4-yl)propanoic acid] was run?
Its activation at 1 µM is 52%.

Which activation at 1 µM does the source give for `COc1ccc(C(=O)N2CC(F)(F)OC(F)(F)C2)c(N2CCC(COc3cc(C(CC(=O)O)C4CC4)ccn3)CC2)c1` (stereo not shown) [Example 202, 3-cyclopropyl-3-(2-((1-(5-methoxy-2-((2,2,6,6-tetrafluoromorpholin-4-yl)carbonyl)phenyl)piperidin-4-yl)methoxy)pyridin-4-yl)propanoic acid] here?
Its activation at 1 µM is 102%.

How did the activation at 1 µM turn out when `COc1ccc(C(=O)N(CC(F)(F)F)c2nc(C)cc(C)n2)c(N2CCC(COc3cc(C(CC(=O)O)C4CC4)ccn3)CC2)c1` (stereo not shown) [Example 168, 3-cyclopropyl-3-(2-((1-(2-((4,6-dimethylpyrimidin-2-yl)(2,2,2-trifluoroethyl)carbamoyl)-5-methoxyphenyl)piperidin-4-yl)methoxy)pyridin-4-yl)propanoic acid] was run?
The activation at 1 µM was 100%.

For `COc1ccc(C(=O)N(CC(C)(C)C)c2cccc(C)n2)c(N2CCC(COc3cccc(C(CC(=O)O)C4CC4)c3F)CC2)c1` (stereo not shown) [Example 275, 3-cyclopropyl-3-(3-((1-(2-((2-dimethylpropyl)-(6-methylpyridin-2-yl)-carbamoyl)-5-methoxy-phenyl)piperidin-4-yl)methoxy)-2-fluoro-phenyl)propanoic acid], which activation at 1 µM is on record?
The activation at 1 µM was 99%.

How did the activation at 1 µM turn out when `COc1ccc(C(=O)N(CC(C)C)c2ccccc2)c(N2CCC(COc3cc(C(CC(=O)O)C4CC4)ccn3)CC2)c1` (stereo not shown) [Example 133, 3-cyclopropyl-3-(2-((1-(5-methoxy-2-((2-methylpropyl)(phenyl)carbamoyl)phenyl)piperidin-4-yl)methoxy)pyridin-4-yl)propanoic acid] was run?
The activation at 1 µM was 98%.

With `COc1ccc(C(=O)N(CC2CC2)c2nccc(C(F)(F)F)n2)c(N2CCC(COc3cc(C(CC(=O)O)C4CC4)ccn3)CC2)c1` (stereo not shown) [Example 237, 3-cyclopropyl-3-(2-((1-(2-((cyclopropylmethyl) (4-(trifluoromethyl)-pyrimidin-2-yl)carbamoyl)-5-methoxyphenyl)piperidin-4-yl)methoxy)pyridin-4-yl)propanoic acid] as the compound, how does the activation at 1 µM read?
The activation at 1 µM was 98%.

For `COc1ccc(C(=O)N(CC(C)(C)F)c2cccc(C)n2)c(N2CCC(COc3cc(C(CC(=O)O)C4CC4)ccn3)CC2)c1` (stereo not shown) [Example 152, 3-cyclopropyl-3-(2-((1-(2-((2-fluoro-2-methylpropyl)(6-methylpyridin-2-yl)carbamoyl)-5-methoxyphenyl)piperidin-4-yl)methoxy)pyridin-4-yl)propanoic acid], which activation at 1 µM is on record?
The activation at 1 µM was 100%.

Which “Activity (human GPR40 agonist activity)” value does the source give for `COc1ccc(C(=O)N(CC(C)(C)C)c2cccc(C)n2)c(N2CCC(COc3cc(C(CC(=O)O)C4CC4)ccn3)CC2)c1` (stereo not shown) [Example 110, 3-cyclopropyl-3-(2-((1-(2-((2,2-dimethylpropyl)(6-methylpyridin-2-yl)carbamoyl)-5-methoxyphenyl)piperidin-4-yl)methoxy)pyridin-4-yl)propanoic acid] here?
Its value is 104%.

How did the activation at 1 µM turn out when `COc1ccc(C(=O)N(CC(C)(C)C)c2ccccn2)c(N2CC[C@@H](COc3cccc(C(CC(=O)O)C4CC4)c3)[C@@H](C)C2)c1` (stereo partly drawn) [Example 280, (3S)-cyclopropyl-3-(3-(((3R,4R)-1-(2-((2,2-dimethylpropyl) (pyridin-2-yl)carbamoyl)-5-methoxyphenyl)-3-methylpiperidin-4-yl)methoxy)phenyl)-propanoic acid] was run?
Its activation at 1 µM is 6%.

`Cc1cccc(N(CC(C)(C)C)C(=O)c2ccc(OC(F)F)cc2N2CCC(COc3cc(C(CC(=O)O)C4CC4)ccn3)CC2)n1` (stereo not shown) [Example 267, 3-cyclopropyl-3-(2-((1-(5-(difluoromethoxy)-2-((2,2-dimethylpropyl)(6-methylpyridin-2-yl)carbamoyl)phenyl)piperidin-4-yl)methoxy)pyridin-4-yl)propanoic acid] was tested. Which activation at 1 µM did it give?
Its activation at 1 µM is 96%.

Which activation at 1 µM does the source give for `COc1ccc(C(=O)N(CC(C)(C)C)c2cccc(C)n2)c(N2CCC(COc3cccc(C(C)(C)CC(=O)O)c3)CC2)c1` [Example 277, 3-(3-((1-(2-((2,2-dimethylpropyl) (6-methylpyridin-2-yl)carbamoyl)-5-methoxyphenyl)piperidin-4-yl)methoxy)phenyl)-3-methylbutanoic acid] here?
Its activation at 1 µM is 110%.

With `CC(C)(C)CN(C(=O)c1ccc(Cl)nc1N1CCC(COc2cccc(C(CC(=O)O)C3CC3)c2)CC1)c1ccccn1` (stereo not shown) [Example 59, 3-(3-((1-(6-chloro-3-((2,2-dimethylpropyl)(pyridin-2-yl)carbamoyl)pyridin-2-yl)piperidin-4-yl)methoxy)phenyl)-3-cyclopropylpropanoic acid] as the compound, how does the activation at 1 µM read?
The activation at 1 µM was 73%.

For `COc1ccc(C(=O)N(CC(C)(C)C)c2cc(C)ccn2)c(N2CCC(COc3cc(C(CC(=O)O)C4CC4)ccn3)CC2)c1` (stereo not shown) [Example 112, 3-cyclopropyl-3-(2-((1-(2-((2,2-dimethylpropyl)(4-methylpyridin-2-yl)carbamoyl)-5-methoxyphenyl)piperidin-4-yl)methoxy)pyridin-4-yl)propanoic acid], which activation at 1 µM is on record?
Its activation at 1 µM is 98%.

For `COc1ccc(C(=O)N2C[C@@H](C)O[C@@H](C)C2)c(N2CCC(COc3cccc(C(CC(=O)O)C4CC4)c3)CC2)c1` (stereo partly drawn) [Example 5, 3-cyclopropyl-3-(3-((1-(2-((cis-2,6-dimethylmorpholin-4-yl)carbonyl)-5-methoxyphenyl)piperidin-4-yl)methoxy)phenyl)propanoic acid], which activation at 1 µM is on record?
Its activation at 1 µM is 85%.

For `COc1ccc(C(=O)N(CC(C)C)c2ccc(C)cn2)c(N2CCC(COc3cc(C(CC(=O)O)C4CC4)ccn3)CC2)c1` (stereo not shown) [Example 115, 3-cyclopropyl-3-(2-((1-(5-methoxy-2-((2-methylpropyl)(5-methylpyridin-2-yl)carbamoyl)phenyl)piperidin-4-yl)methoxy)pyridin-4-yl)propanoic acid], which activation at 1 µM is on record?
Its activation at 1 µM is 96%.

Which activation at 1 µM does the source give for `COc1c(F)cc(C(=O)N(CC(C)(C)C)c2cccc(C)n2)c(N2CCC(COc3cc(C(CC(=O)O)C4CC4)ccn3)CC2)c1F` (stereo not shown) [Example 253, 3-cyclopropyl-3-(2-((1-(6-((2,2-dimethylpropyl)(6-methylpyridin-2-yl)carbamoyl)-2,4-difluoro-3-methoxyphenyl)piperidin-4-yl)methoxy)pyridin-4-yl)propanoic acid] here?
The activation at 1 µM was 74%.
